The record followed here is US9884863B2, “STAT3 inhibitor” (Board of Regents, The University of Texas System, priority 2013, dated 2018).

In the case of `N#C/C(=C\c1cccc(F)c1)C(=O)Nc1ccc2c(c1)S(=O)(=O)C=C2` [RMF-1-31, 2-Cyano-N-(1,1-dioxo-1H-1λ^6-benzo[b]thiophen-6-yl)-3-(3-fluorophenyl)acrylamide], the melting point (usually the temperature of the solid-liquid transition) lay in the range of 245 to 246 °C. The molecule `N#C/C(=C\C1CCCCC1)C(=O)Nc1ccc2c(c1)S(=O)(=O)C=C2` [RMF-1-20, 2-Cyano-3-cyclohexyl-N-(1,1-dioxo-1H-1λ^6-benzo[b]thiophen-6-yl)acrylamide] yielded a melting point of 180 to 181 °C.

`N#C/C(=C\c1cccc(O)c1)C(=O)Nc1ccc2c(c1)S(=O)(=O)C=C2` [RMF-1-10, 2-Cyano-N-(1,1-dioxo-1H-1λ^6-benzo[b]thiophen-6-yl)-3-(3-hydroxyphenyl)acrylamide] returned a melting point of 262 to 263 °C. Then `COc1cc(/C=C(\C#N)C(=O)Nc2ccc3c(c2)S(=O)(=O)C=C3)cc(OC)c1OC` [RMF-1-38, 2-Cyano-N-(1,1-dioxo-1H-1λ^6-benzo[b]thiophen-6-yl)-3-(3,4,5-trimethoxyphenyl)acrylamide], with 224 to 225 °C. Then `N#C/C(=C\c1cccc([N+](=O)[O-])c1)C(=O)Nc1ccc2c(c1)S(=O)(=O)C=C2` [RMF-1-15, 2-Cyano-N-(1,1-dioxo-1H-1λ^6-benzo[b]thiophen-6-yl)-3-(3-nitrophenyl)acrylamide], with 269 to 270 °C; and `N#C/C(=C\c1c(F)cccc1F)C(=O)Nc1ccc2c(c1)S(=O)(=O)C=C2` [HJC-5-91, 2-Cyano-3-(2,6-difluorophenyl)-N-(1,1-dioxo-1H-1λ^6-benzo[b]thiophen-6-yl)acrylamide], with 253 to 254 °C. Take `N#C/C(=C\c1ccccn1)C(=O)Nc1ccc2c(c1)S(=O)(=O)C=C2` [HJC-5-90, 2-Cyano-N-(1,1-dioxo-1H-1λ^6-benzo[b]thiophen-6-yl)-3-pyridin-2-yl-acrylamide]: the melting point was in the range of 234 to 235 °C. Consider `N#C/C(=C\c1ccc(Br)cc1)C(=O)Nc1ccc2c(c1)S(=O)(=O)C=C2` [RMF-1-8, 3-(4-Bromophenyl)-2-cyano-N-(1,1-dioxo-1H-1λ^6-benzo[b]thiophen-6-yl)acrylamide], for which the melting point is 289 to 290 °C. Regarding `O=C(Nc1nnc(-c2ccco2)o1)c1cc(Cl)ccc1O` [Compound 13, 5-Chloro-N-(5-furan-2-yl-[1,3,4]oxadiazol-2-yl)-2-hydroxybenzamide], the melting point is 196 to 197 °C.

Regarding `COc1ccc(/C=C(\C#N)C(=O)Nc2ccc3c(c2)S(=O)(=O)C=C3)cc1` [RMF-1-13, 2-Cyano-N-(1,1-dioxo-1H-1λ^6-benzo[b]thiophen-6-yl)-3-(4-methoxyphenyl)acrylamide], the melting point lay in the range of 275 to 276 °C. To `Cc1cccc(/C=C(\C#N)C(=O)Nc2ccc3c(c2)S(=O)(=O)C=C3)n1` [HJC-5-88, 2-Cyano-N-(1,1-dioxo-1H-1λ^6-benzo[b]thiophen-6-yl)-3-(6-methyl-pyridin-2-yl)acrylamide] belongs 221 to 222 °C; to `CN(C)c1ccc(/C=C(\C#N)C(=O)Nc2ccc3c(c2)S(=O)(=O)C=C3)cc1` [RMF-1-16, 2-Cyano-3-(4-dimethylaminophenyl)-N-(1,1-dioxo-1H-1λ^6-benzo[b]thiophen-6-yl)acrylamide], 279 to 280 °C; to `N#C/C(=C\c1cccnc1Br)C(=O)Nc1ccc2c(c1)S(=O)(=O)C=C2` [RMF-1-26, 3-(2-Bromopyridin-3-yl)-2-cyano-N-(1,1-dioxo-1H-1λ^6-benzo[b]thiophen-6-yl)acrylamide], 242 to 243 °C. Then `N#C/C(=C\c1ccncc1)C(=O)Nc1ccc2c(c1)S(=O)(=O)C=C2` [RMF-1-23, 2-Cyano-N-(1,1-dioxo-1H-1λ^6-benzo[b]thiophen-6-yl)-3-pyridin-4-yl-acrylamide], with 288 to 289 °C. To `N#C/C(=C\c1ccccc1Br)C(=O)Nc1ccc2c(c1)S(=O)(=O)C=C2` [RMF-1-7, 3-(2-Bromophenyl)-2-cyano-N-(1,1-dioxo-1H-1λ^6-benzo[b]thiophen-6-yl)acrylamide] belongs 226 to 227 °C; to `N#C/C(=C\c1ccc([N+](=O)[O-])cc1)C(=O)Nc1ccc2c(c1)S(=O)(=O)C=C2` [RMF-1-37, 2-Cyano-N-(1,1-dioxo-1H-1λ^6-benzo[b]thiophen-6-yl)-3-(4-nitrophenyl)acrylamide], 272 to 273 °C.

Turning to `N#C/C(=C\c1cccc(Cl)c1)C(=O)Nc1ccc2c(c1)S(=O)(=O)C=C2` [HJC-5-89, 3-(3-Chlorophenyl)-2-cyano-N-(1,1-dioxo-1H-1λ^6-benzo[b]thiophen-6-yl)acrylamide], the melting point is 234 to 235 °C. To `COc1ccc(/C=C(\C#N)C(=O)Nc2ccc3c(c2)S(=O)(=O)C=C3)cn1` [RMF-1-28, 2-Cyano-N-(1,1-dioxo-1H-1λ^6-benzo[b]thiophen-6-yl)-3-(6-methoxy-pyridin-3-yl)acrylamide] belongs 255 to 256 °C; to `Cc1cc(C)c(/C=C(\C#N)C(=O)Nc2ccc3c(c2)S(=O)(=O)C=C3)c(C)c1` [RMF-1-14, 2-Cyano-N-(1,1-dioxo-1H-1λ^6-benzo[b]thiophen-6-yl)-3-(2,4,6-trimethylphenyl)acrylamide], 255 to 256 °C. In the case of `COc1ccccc1/C=C(\C#N)C(=O)Nc1ccc2c(c1)S(=O)(=O)C=C2` [RMF-1-12, 2-Cyano-N-(1,1-dioxo-1H-1λ^6-benzo[b]thiophen-6-yl)-3-(2-methoxyphenyl)acrylamide], the melting point was 223 to 224 °C. As for `C[C@H](NC(=O)c1cc(Cl)ccc1O)c1ccccc1` [Compound 9, (S)-5-Chloro-2-hydroxy-N-(1-phenylethyl)benzamide], the melting point was in the range of 124 to 125 °C.

As to `N#C/C(=C\c1ccccc1[N+](=O)[O-])C(=O)Nc1ccc2c(c1)S(=O)(=O)C=C2` [RMF-1-36, 2-Cyano-N-(1,1-dioxo-1H-1λ^6-benzo[b]thiophen-6-yl)-3-(2-nitrophenyl)acrylamide], the melting point was 254 to 255 °C. To `O=C(Nc1ccc2c(c1)S(=O)(=O)C=C2)c1c2ccccc2nc2ccccc12` belongs 237 to 238 °C.

As to `N#C/C(=C\c1cccnc1Cl)C(=O)Nc1ccc2c(c1)S(=O)(=O)C=C2` [RMF-1-25, 3-(2-Chloro-pyridin-3-yl)-2-cyano-N-(1,1-dioxo-1H-1λ^6-benzo[b]thiophen-6-yl)acrylamide], the melting point is 251 to 252 °C.
